From PubChem BioAssay (NCI)
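Five compound concentrations were applied to cells in 96-well plates for 48 hours; endpoints were derived by simple linear interpolation of the resulting dose-response curve. TGI denotes the concentration required for complete inhibition of growth.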

Assays:
Experiment in all cases: NCI anticancer screen, dose series, 48 h
CCRF-CEM leukemia = tested on: CCRF-CEM leukemia
COLO 205 colon = tested on: COLO 205 colon
HCC-2998 colon = tested on: HCC-2998 colon
HOP-62 NSCLC = tested on: HOP-62 NSCLC
HOP-92 NSCLC = tested on: HOP-92 NSCLC
HT29 colon = tested on: HT29 colon
IGROV1 ovarian = tested on: IGROV1 ovarian
NCI/ADR-RES ovarian = tested on: NCI/ADR-RES ovarian
OVCAR-8 ovarian = tested on: OVCAR-8 ovarian
RXF 393 renal = tested on: RXF 393 renal
SF-539 CNS = tested on: SF-539 CNS
SK-MEL-5 melanoma = tested on: SK-MEL-5 melanoma

Structure (SMILES) | TGI (CCRF-CEM leukemia) | TGI (COLO 205 colon) | TGI (HCC-2998 colon) | TGI (HOP-62 NSCLC) | TGI (HOP-92 NSCLC) | TGI (HT29 colon) | TGI (IGROV1 ovarian) | TGI (NCI/ADR-RES ovarian) | TGI (OVCAR-8 ovarian) | TGI (RXF 393 renal) | TGI (SF-539 CNS) | TGI (SK-MEL-5 melanoma)
CC(C)N(C(C)C)S(=O)(=O)C[C@]12CC[C@H](CC13OCC(CS(=O)(=O)c1ccccc1)O3)C2(C)C (stereo partly drawn) | > 100 µM | 34.8 µM | > 100 µM | > 100 µM | > 75.3 µM | > 100 µM | > 59.5 µM | > 100 µM | > 100 µM | > 100 µM | > 100 µM | > 100 µM
ClCCCCCc1c2nc(c(CCCCCCl)c3ccc([nH]3)c(CCCCCCl)c3ccc([nH]3)c(CCCCCCl)c3nc1C=C3)C=C2 | > 100 µM | > 100 µM | > 100 µM | > 100 µM | > 100 µM | > 100 µM | > 100 µM | > 100 µM | > 100 µM | > 100 µM | > 100 µM | > 100 µM
CCOC(=O)c1nc2ccc(C(F)(F)F)cc2nc1Oc1ccc(C(=O)OC)cc1 | > 100 µM | > 100 µM | > 100 µM | 74.8 µM | > 100 µM | > 100 µM | > 100 µM | > 100 µM | > 100 µM | > 100 µM | > 100 µM | > 100 µM
CC1=C(C)SC(=C2Sc3nc(O)[nH]c(=O)c3S2)S1 | > 100 µM | > 100 µM | > 100 µM | > 100 µM | > 100 µM | > 100 µM | > 100 µM | > 100 µM | > 100 µM | > 100 µM | > 100 µM | > 100 µM
O=[N+]([O-])c1ccc(NNN=Nc2ccc(-c3nc4ccccc4s3)cc2)c([N+](=O)[O-])c1 | > 100 µM | 31.5 µM | 36.6 µM | 48.4 µM | 52.7 µM | 41.3 µM | 49.5 µM | 81.5 µM | 72.5 µM | 50.5 µM | 42.4 µM | 29.3 µM
c1ccc([I+]c2ccccc2)cc1 | > 100 µM | > 100 µM | > 100 µM | > 100 µM | > 100 µM | > 100 µM | > 100 µM | > 100 µM | > 100 µM | > 100 µM | > 100 µM | > 100 µM
CCN1CN(c2ccccc2)C2(CCN(CC(CC3OCCO3)c3ccc(F)cc3)CC2)C1=O (stereo not drawn) | > 43.1 µM | 1.95 µM | 46.1 µM | 12.1 µM | 10.3 µM | 5.69 µM | > 53.8 µM | > 92.7 µM | > 100 µM | 44.8 µM | 25.5 µM | 15.2 µM
CC1=CC2c3cccc4[nH]cc(c34)CC2N(C)C1 (stereo not drawn) | > 100 µM | > 100 µM | 86 µM | 30.8 µM | > 80.7 µM | > 100 µM | > 100 µM | > 100 µM | > 100 µM | > 100 µM | > 100 µM | > 100 µM
CC(=O)N(C(C)=O)c1cc2c3c(c1)CCCN3CCC2 | > 10 µM | > 10 µM | > 10 µM | > 10 µM | > 10 µM | > 10 µM | > 10 µM | > 10 µM | > 10 µM | > 10 µM | > 10 µM | > 10 µM
Cc1nc2sccn2c1/C=C1/C(=O)Nc2cccc(Cl)c21 | > 100 µM | > 100 µM | > 100 µM | > 100 µM | > 100 µM | > 100 µM | > 100 µM | > 100 µM | > 100 µM | > 100 µM | > 100 µM | > 100 µM
CC(=O)OC(C)(C)CCC(=O)[C@](C)(O)[C@H]1[C@H](O)C[C@@]2(C)[C@@H]3CCc4c(cc(OC5OC(CO)C(O)C(O)C5O)c(O)c4C)C3(C)C(=O)C[C@]12C (stereo partly drawn) | > 100 µM | > 100 µM | > 100 µM | > 100 µM | > 100 µM | > 100 µM | > 100 µM | > 100 µM | > 100 µM | > 100 µM | > 100 µM | > 100 µM
COc1ccc(/C=C2\C[C@H]3[C@@H]4CCC5=CC(=O)CC[C@]5(C)[C@H]4CC[C@]3(C)C2=O)cc1OC | 47.2 µM | 9.93 µM | > 100 µM | > 100 µM | > 100 µM | > 100 µM | > 100 µM | > 100 µM | > 100 µM | > 100 µM | > 100 µM | 5.45 µM
CC(C)NC(=O)OCc1c2c(n(C)c1COC(=O)NC(C)C)-c1ccccc1CC2 | 7.63 µM | 21.6 µM | 26.3 µM | 18.6 µM | 22.2 µM | 30.3 µM | 29.2 µM | 32.2 µM | 31.1 µM | 27.3 µM | 34.3 µM | 29.1 µM
CCCCCCCCCCCCCCCCCCOCC(O)COP(=O)(O)OCC1OC(n2ccc(N)nc2=O)C(O)C1O (stereo not drawn) | 18.6 µM | 29.5 µM | > 100 µM | 48.9 µM | 71.8 µM | 50.7 µM | 28.5 µM | > 100 µM | 24.3 µM | 33.3 µM | 34.4 µM | > 100 µM
